Counter-ions that a name gives are not always drawn.
Assays:
B-Raf = B-Raf (Homo sapiens, UniProt P15056); test: B-Raf Accelerated MEK ATPase assay (BRAMA); type: biochemical; settings: BRAMA enzyme assay, class by pIC50; for IC50: read-out: B-Raf Activity
Method: Compounds of the present invention were tested for B-Raf […] inhibitory activity in a B-Raf Accelerated MEK ATPase assay (BRAMA). The BRAMA assay is a high sensitivity assay which measures an intrinsic MEK-mediated ATP hydrolysis uncoupled from downstream ERK phosphorylation by coupling the formation of ADP to NADH oxidation through the enzymes pyruvate kinase and lactate dehydrogenase. When ADP production is initiated by addition of catalytic amounts of an activated RAF enzyme and non-phosphorylated MEK, one observes robust ADP production concomitant with RAF-mediated phosphorylation of MEK. Specific details of the assay are disclosed in: C. Rominger, M. Schaber, E. May. Assay for B-Raf Activity Based on Intrinsic MEK ATPase Activity.

A375P tumor cells = test: Cell growth inhibition assay (CellTiter-Glo), A375P; settings: Homo sapiens, 72 h, read-out: Activity in A375P Tumor Cells;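 further: total ATP luminescence used as proxy for cell number, serial threefold compound dilutions at 0.2% DMSO, growth inhibition expressed versus DMSO vehicle-treated wells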
HT-29 tumor cells = test: Cell growth inhibition assay (CellTiter-Glo), HT-29; settings: Homo sapiens, HT-29, 72 h, read-out: Activity in HT-29 Tumor Cells;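 further: ATP content read by luminescence as proxy for cell number, growth inhibition versus DMSO vehicle wells, 0.2% DMSO final, nine serial threefold compound dilutions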
Colo205 tumor cells = test: Cell growth inhibition assay (CellTiter-Glo), Colo205; settings: Homo sapiens, COLO 205, 72 h, read-out: Activity in Colo205 Tumor Cells;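 further: growth measured via total ATP luminescence (CellTiter-Glo) as a proxy for cell number, inhibition expressed against DMSO-treated control wells, 3-day exposure at 0.2% final DMSO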
Method: (§1) Cell Growth Inhibition Assays Human colon tumor cells (Colo205) were cultured in RPMI (Mediatech 50-020-PB) containing 10% FBS and 1% penicillin-streptomycin. […] Human melanoma cancer cells (A375-F11S) were cultured in RPMI (Mediatech 50-020-PB) containing 10% FBS, 1% sodium pyruvate, and 1% penicillin-streptomycin. Human colon cancer cells (HT-29) were cultured in high glucose DMEM (Mediatech 50-013-PB) containing 10% FBS and 1% penicillin-streptomycin. Human melanoma cancer cells (SK-MEL-3) were cultured in McCoy's 5A (50-025-PB) containing 15% FBS, and 1% penicillin-streptomycin. All cell lines were maintained at 37° C. in a humidified 5% CO2, 95% air incubator.
(§2) The next day, compounds were diluted as follows: For 96-well assays, 13.5 μl of compound in DMSO were diluted using nine (9) serial 1:3 dilutions of 4.5 μl in 9 μl of DMSO. Medium (270 μl/well of RPMI with 10% FBS and 1% penicillin-streptomycin) was added to the plates. Aliquots (7 μl) were added to cells in the final assay giving a final DMSO concentration of 0.2%. For 384-well assays, 15 μl of compound in DMSO were diluted using nine (9) serial 1:3 dilutions of 5 μl in 10 μl of DMSO, followed by a further dilution of 5 μl of compound with 95 μl of medium, of which 2 μl are added to cells in the final assay giving a final DMSO concentration of 0.2%. Cells were incubated at 37° C., 5% CO2 for 3 days.
(§3) Total ATP was measured (as a surrogate estimate of cell number) using CellTiter-Glo® (Promega G7571) reagent. Briefly, plates were removed from the incubator and allowed to equilibrate to room temperature for 30 minutes. CellTiter-Glo® (25 μl or 55 μl for 384-well or 96-well assays, respectively) reagent was added to each well and plates were shaken on an orbital plate shaker for 2 minutes. Plates were incubated without shaking for a further 30 minutes and read on an LJL Analyst GT reader in luminometer mode with an integration time of 0.5 seconds per well. Percent inhibition of cell growth was calculated relative to DMSO vehicle-treated control wells.

SK-MEL-3 tumor cells = test: Cell growth inhibition assay (CellTiter-Glo), SK-MEL-3; settings: Homo sapiens, SK-MEL3, 72 h, read-out: Activity in SK-MEL-3 Tumor Cells;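 further: human melanoma cells grown with compound for 3 days in 0.2% DMSO, total ATP read by luminescence as proxy for cell number, growth inhibition versus DMSO-treated wells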
Method: as §1, §2, §3

SK-MEL-28 tumor cells = test: Cell growth inhibition assay (CellTiter-Glo), SK-MEL-28; settings: Homo sapiens, SK-MEL-28, 72 h, read-out: Activity in SK-MEL-28 Tumor Cells;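 further: luminescent total ATP as a proxy for cell number, threefold serial dilutions at 0.2% DMSO, percent growth inhibition versus DMSO vehicle control wells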

Sequence of B-Raf (P15056 whole entry): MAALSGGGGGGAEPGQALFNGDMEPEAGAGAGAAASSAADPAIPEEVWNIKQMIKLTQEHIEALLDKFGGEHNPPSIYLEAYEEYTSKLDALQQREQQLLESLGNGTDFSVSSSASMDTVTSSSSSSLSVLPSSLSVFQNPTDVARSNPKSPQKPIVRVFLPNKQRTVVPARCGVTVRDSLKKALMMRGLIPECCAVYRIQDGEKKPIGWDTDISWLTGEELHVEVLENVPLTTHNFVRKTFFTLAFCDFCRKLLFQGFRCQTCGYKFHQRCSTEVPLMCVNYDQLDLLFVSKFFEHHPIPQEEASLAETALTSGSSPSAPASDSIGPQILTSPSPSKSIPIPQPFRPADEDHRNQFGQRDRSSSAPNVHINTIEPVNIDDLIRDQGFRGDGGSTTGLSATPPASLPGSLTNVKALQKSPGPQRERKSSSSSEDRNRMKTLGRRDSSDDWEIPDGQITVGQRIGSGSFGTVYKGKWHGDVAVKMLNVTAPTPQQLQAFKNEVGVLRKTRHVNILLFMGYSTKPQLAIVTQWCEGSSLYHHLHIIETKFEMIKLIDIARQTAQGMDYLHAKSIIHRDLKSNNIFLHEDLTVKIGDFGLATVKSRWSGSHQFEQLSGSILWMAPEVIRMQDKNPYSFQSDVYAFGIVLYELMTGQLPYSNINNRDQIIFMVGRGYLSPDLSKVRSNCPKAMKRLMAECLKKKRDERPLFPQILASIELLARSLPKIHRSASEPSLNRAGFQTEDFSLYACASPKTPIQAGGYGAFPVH

| SMILES | IC50 (B-Raf) | IC50 (A375P tumor cells) | IC50 (HT-29 tumor cells) | IC50 (Colo205 tumor cells) | IC50 (SK-MEL-3 tumor cells) | IC50 (SK-MEL-28 tumor cells) | B-Raf Activity (B-Raf) |
| --- | --- | --- | --- | --- | --- | --- | --- |
| CCNc1nc(-c2cc(OC)cc(OC)c2)c(-c2ccnc(Nc3ccc(OCCN4CCOCC4)c(F)c3)n2)s1 [Example 13, 4-[4-[3,5-Bis(methyloxy)phenyl]-2-(ethylamino)-1,3-thiazol-5-yl]-N-(3-fluoro-4-{[2-(4-morpholinyl)ethyl]oxy}phenyl)-2-pyrimidinamine] | < 100 nM | 500 to 5000 nM | < 500 nM | 500 to 5000 nM | < 500 nM | 500 to 5000 nM |  |
| CCNc1nc(-c2cc(C)cc(OC)c2)c(-c2ccnc(Nc3ccc4c(c3)CS(=O)(=O)C4)n2)s1 [Example 14, N-(2,2-Dioxido-1,3-dihydro-2-benzothien-5-yl)-4-{2-(ethylamino)-4-[3-methyl-5-(methyloxy)phenyl]-1,3-thiazol-5-yl}-2-pyrimidinamine] | < 100 nM | < 500 nM | < 500 nM | < 500 nM | < 500 nM | 500 to 5000 nM |  |
| COc1cc(OC)cc(-c2nc(NC3CC3)sc2-c2ccnc(Nc3ccc4c(c3)CN(C)CC4)n2)c1 [Example 15, N-{4-[4-[3,5-Bis(methyloxy)phenyl]-2-(cyclopropylamino)-1,3-thiazol-5-yl]-2-pyrimidinyl}-2-methyl-1,2,3,4-tetrahydro-7-isoquinolinamine] | < 100 nM | 500 to 5000 nM | 500 to 5000 nM | 500 to 5000 nM | < 500 nM | 500 to 5000 nM |  |
| COc1cc(OC)cc(-c2nc(NC3CC3)sc2-c2ccnc(Nc3ccc(OCCN4CCCC4=O)c(F)c3)n2)c1 [Example 16, 1-(2-{[4-({4-[4-[3,5-Bis(methyloxy)phenyl]-2-(cyclopropylamino)-1,3-thiazol-5-yl]-2-pyrimidinyl}amino)-2-fluorophenyl]oxy}ethyl)-2-pyrrolidinone trifluoroacetate] | < 100 nM | 500 to 5000 nM | < 500 nM | 500 to 5000 nM | < 500 nM | 500 to 5000 nM |  |
| COc1cc(OC)cc(-c2nc(NC3CC3)sc2-c2ccnc(Nc3ccc(OC4CCN(CCS(C)(=O)=O)CC4)c(F)c3)n2)c1 [Example 17, 4-[4-[3,5-Bis(methyloxy)phenyl]-2-(cyclopropylamino)-1,3-thiazol-5-yl]-N-[3-fluoro-4-({1-[2-(methylsulfonyl)ethyl]-4-piperidinyl}oxy)phenyl]-2-pyrimidinamine] | < 100 nM | < 500 nM | < 500 nM | < 500 nM | < 500 nM | < 500 nM |  |
| COCCN1CCN(c2ccc(Nc3nccc(-c4sc(NC5CC5)nc4-c4cc(OC)cc(OC)c4)n3)cn2)CC1 [Example 18, 4-[4-[3,5-Bis(methyloxy)phenyl]-2-(cyclopropylamino)-1,3-thiazol-5-yl]-N-(6-{4-[2-(methyloxy)ethyl]-1-piperazinyl}-3-pyridinyl)-2-pyrimidinamine] | < 100 nM | < 500 nM | < 500 nM | < 500 nM | < 500 nM | < 500 nM |  |
| COc1cc(OC)cc(-c2nc(NC3CC3)sc2-c2ccnc(Nc3ccc(O[C@@H]4CCN(CCF)C4)nc3)n2)c1 [Example 19, 4-[4-[3,5-Bis(methyloxy)phenyl]-2-(cyclopropylamino)-1,3-thiazol-5-yl]-N-(6-{[(3R)-1-(2-fluoroethyl)-3-pyrrolidinyl]oxy}-3-pyridinyl)-2-pyrimidinamine] | < 100 nM | < 500 nM | < 500 nM | < 500 nM | < 500 nM | < 500 nM |  |
| CNc1nc(-c2cc(OC)cc(OC)c2)c(-c2ccnc(Nc3ccc(OCCN4CCCC4)c(Cl)c3)n2)s1 [Example 20, 4-[4-[3,5-Bis(methyloxy)phenyl]-2-(methylamino)-1,3-thiazol-5-yl]-N-(3-chloro-4-{[2-(1-pyrrolidinyl)ethyl]oxy}phenyl)-2-pyrimidinamine] | < 100 nM | < 500 nM | < 500 nM | < 500 nM | < 500 nM | < 500 nM |  |
| CCNc1nc(-c2cc(C)cc(OC)c2)c(-c2ccnc(Nc3ccc(N4CCOCC4)c(F)c3)n2)o1.O=C(O)C(F)(F)F [Example 129] |  | 500 to 5000 nM | 500 to 5000 nM |  | 500 to 5000 nM |  | +++ (at least one pIC50 measurement of greater than 7 against B-Raf) |
| CCNc1nc(-c2cc(OC)cc(OC)c2)c(-c2ccnc(Nc3ccc(N4CCN5CCCCC5C4)c(F)c3)n2)o1 (stereo not shown) [Example 134] | < 100 nM |  |  | 500 to 5000 nM |  | 500 to 5000 nM |  |

More lines, main results first:

| IC50 (B-Raf) | IC50 (A375P tumor cells) | IC50 (HT-29 tumor cells) | IC50 (Colo205 tumor cells) | IC50 (SK-MEL-3 tumor cells) | IC50 (SK-MEL-28 tumor cells) | SMILES | B-Raf Activity (B-Raf) |
| --- | --- | --- | --- | --- | --- | --- | --- |
| < 100 nM | < 500 nM | < 500 nM | < 500 nM | < 500 nM | 500 to 5000 nM | CCNc1nc(-c2cc(OC)cc(OC)c2)c(-c2ccnc(Nc3ccc(N4CCN(CCS(C)(=O)=O)CC4)nc3)n2)s1 [Example 1, 4-[4-[3,5-Bis(methyloxy)phenyl]-2-(ethylamino)-1,3-thiazol-5-yl]-N-(6-{4-[2-(methylsulfonyl)ethyl]-1-piperazinyl}-3-pyridinyl)-2-pyrimidinamine] |  |
| < 100 nM | < 500 nM | < 500 nM | < 500 nM | < 500 nM | < 500 nM | CCNc1nc(-c2cc(OC)cc(OC)c2)c(-c2ccnc(Nc3ccc(N4CCN(S(C)(=O)=O)CC4)nc3)n2)s1 [Example 2, 4-[4-[3,5-bis(methyloxy)phenyl]-2-(ethylamino)-1,3-thiazol-5-yl]-N-{6-[4-(methylsulfonyl)-1-piperazinyl]-3-pyridinyl}-2-pyrimidinamine] |  |
| < 100 nM | < 500 nM | < 500 nM | < 500 nM | < 500 nM | < 500 nM | CCNc1nc(-c2cc(OC)cc(OC)c2)c(-c2ccnc(Nc3ccc(O[C@H]4CCN(CCS(C)(=O)=O)C4)nc3)n2)s1 [Example 3, 4-[4-[3,5-Bis(methyloxy)phenyl]-2-(ethylamino)-1,3-thiazol-5-yl]-N-[6-({(3S)-1-[2-(methylsulfonyl)ethyl]-3-pyrrolidinyl}oxy)-3-pyridinyl]-2-pyrimidinamine] |  |
| < 100 nM | 500 to 5000 nM | < 500 nM | 500 to 5000 nM | < 500 nM | 500 to 5000 nM | CCNc1nc(-c2cc(OC)cc(OC)c2)c(-c2ccnc(Nc3ccc(N4CCN(CC)CC4)cc3)n2)s1 [Example 5, 4-[4-[3,5-Bis(methyloxy)phenyl]-2-(ethylamino)-1,3-thiazol-5-yl]-N-[4-(4-ethyl-1-piperazinyl)phenyl]-2-pyrimidinamine trifluoroacetate] |  |
| < 100 nM | < 500 nM | < 500 nM | < 500 nM | < 500 nM | 500 to 5000 nM | CCNc1nc(-c2cc(OC)cc(OC)c2)c(-c2ccnc(Nc3ccc(N4CCN(CCS(C)(=O)=O)CC4)c(F)c3)n2)s1 [Example 6, 4-[4-[3,5-Bis(methyloxy)phenyl]-2-(ethylamino)-1,3-thiazol-5-yl]-N-(3-fluoro-4-{4-[2-(methylsulfonyl)ethyl]-1-piperazinyl}phenyl)-2-pyrimidinamine trifluoroacetate] |  |
| < 100 nM | 500 to 5000 nM | < 500 nM | < 500 nM | < 500 nM | < 500 nM | CCNc1nc(-c2cc(OC)cc(OC)c2)c(-c2ccnc(Nc3ccc(N4CCN(CCF)CC4)c(F)c3)n2)s1 [Example 8, 4-[4-[3,5-Bis(methyloxy)phenyl]-2-(ethylamino)-1,3-thiazol-5-yl]-N-{3-fluoro-4-[4-(2-fluoroethyl)-1-piperazinyl]phenyl}-2-pyrimidinamine] |  |
| < 100 nM | 500 to 5000 nM | < 500 nM | 500 to 5000 nM | < 500 nM | < 500 nM | CCNc1nc(-c2cc(OC)cc(OC)c2)c(-c2ccnc(Nc3ccc(N4CCS(=O)(=O)CC4)c(F)c3)n2)s1 [Example 9, 4-[4-[3,5-Bis(methyloxy)phenyl]-2-(ethylamino)-1,3-thiazol-5-yl]-N-[4-(1,1-dioxido-4-thiomorpholinyl)-3-fluorophenyl]-2-pyrimidinamine] |  |
| < 100 nM | < 500 nM | < 500 nM | < 500 nM | < 500 nM | < 500 nM | CCNc1nc(-c2cc(OC)cc(OC)c2)c(-c2ccnc(Nc3ccc(N4CCN(C)CC4)c(Cl)c3)n2)s1 [Example 11, 4-[4-[3,5-Bis(methyloxy)phenyl]-2-(ethylamino)-1,3-thiazol-5-yl]-N-[3-chloro-4-(4-methyl-1-piperazinyl)phenyl]-2-pyrimidinamine] |  |
| < 100 nM | < 500 nM | < 500 nM | < 500 nM | < 500 nM | 500 to 5000 nM | CCNc1nc(-c2cc(OC)cc(OC)c2)c(-c2ccnc(Nc3ccc(OC4CCN(C(C)=O)CC4)c(F)c3)n2)s1 [Example 12, N-{4-[(1-Acetyl-4-piperidinyl)oxy]-3-fluorophenyl}-4-[4-[3,5-bis(methyloxy)phenyl]-2-(ethylamino)-1,3-thiazol-5-yl]-2-pyrimidinamine] |  |

Source: patent US20110190280A1, “Thiazole And Oxazole Kinase Inhibitors” (priority 2007, published 2011)
